Measurements published in US20120263762A1, “STABILISED PARTICLES COMPRISING 5-METHYL-(6S)-TETRAHYDROFOLATE” (BAYER PHARMA AKTIENGESELLSCHAFT, priority 2009, published 2012).

Experiment: Particle size distribution of particles (laser diffraction, volume distribution)
Format: physicochemical
Conditions: micronized active ingredient before coating
Text: When used herein, the term “d90 particle size” is intended to mean that the particle size distribution is so that at least 90% of the particles have a particle diameter of less than the specified value, calculated from the volume distribution curve under the presumption of spherical particles. In a similar way, the term “d50 particle size” is intended to mean that the particle size distribution is so that at least 50% of the particles have a particle diameter of less than the specified value, calculated from the volume distribution curve under the presumption of spherical particles.
Therefore, it is important to note that whenever the terms “particle size”, “particle size distribution”, “particle diameter”, “d90”, “d50”, etc., are used herein it should be understood that the specific values or ranges used in connection therewith are always meant to be determined from the volume distribution curve under the presumption of spherical particles. The particle size distribution may be determined by various techniques, e.g. laser diffraction, and will be known to the person skilled in the art. […] The particle size distribution of the particles, when incorporated in a wafer, may be determined by dissolving the film forming matrix, separation of the protected particles, and drying the protected particles. […]

- d50: 2.2 μm
- d90: 4.8 μm
SMILES: C[C@]12CCC(=O)C=C1[C@@H]1C[C@@H]1[C@H]1[C@@H]3[C@@H]4C[C@@H]4[C@@]4(CCC(=O)O4)[C@@]3(C)CC[C@@H]12 [drospirenone]
